# Like-named read-outs stand apart in the source and are kept apart here.
# Legend:
# +SA mammary tumor = experiment: +SA tumor implantation into mammary fat pads of syngeneic BALB/c mice; format: in vivo
# From the text: The malignant +SA mammary epithelial cell line was derived from an adenocarcinoma that developed spontaneously in a female BALB/c mouse. These cells can be grown on plastic in culture and display the ability to grow in soft agarose. Re-implantation of +SA mammary tumor cells back into the mammary fat pad of syngeneic mice results in the rapid development and growth of metastatic tumors. Prior to experimentation, +SA cells were serially passaged at subconfluent cell density. For subculturing, cells are rinsed with calcium/magnesium-free phosphate buffered saline (PBS) and incubated in 0.05% trypsin containing 0.025% EDTA in PBS for 5 min at 37° C. […] Cell pellets are then resuspended in control culture media, counted by hemocytometer, and then plated at the desired density in culture plates. […] On the day of tumour implantation, +SA cells grown in culture are isolated with trypsin, washed, counted and diluted to the desired concentration in fresh culture medium. […] Tumor size and body weighs were recorded every other day. Average tumor diameter for each palpable tumor was determined using the mean of the 2 largest perpendicular diameters as measured with vernier calipers. Tumor volume was determined using the equation: Volume=Length (cm)×Width^2 (cm)/2 or V=L×W^2/2 […]
# [1] = tested on: MDA-MB-231 human breast cancer cells; experiment: Wound-healing assay (cell migration); format: cell-based; details: MDA-MB-231, wound-healing assay, dose response; read-out: IC50 antimigratory activity
# Outline: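 Scratch wounds made in confluent (>95%) monolayers, then compounds added in fresh medium (5 μM in screening; concentration range in follow-up), DMSO as negative control, triplicate. After 24 h serum-starved at 37 °C, cells fixed and Diff-Quick stained. Migrated cells counted per 400× field (≥3 fields); IC50 from concentration range.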
# [2] = tested on: MCF 10A non-tumorigenic mammary epithelial cells; experiment: MTT assay of MCF10A cells; format: cell-based, human
# Outline: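 MCF 10A non-tumorigenic human mammary epithelial cells were seeded at 10×10^4 cells/well and treated with compounds in serum-free medium, final DMSO below 0.1%. Viability was read by MTT, and IC50 came from non-linear regression. Selectivity index = MCF 10A IC50 ÷ +SA cell line IC50.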
SMILES,"body weights (+SA mammary tumor; 0.5 mg/day intravenous, 14-day treatment period)","+SA mammary tumor growth (+SA mammary tumor; 0.5 mg/day, tail vein injection, 14 day, vs vehicle-treated control)",IC50 [1] [µM],"IC50 ([2]; MCF10A cells, Table II, non-linear regression, read-out: MCF10A (IC50)) [µM]","IC50 ([2]; MCF 10A non-tumorigenic cells, Table I, read-out: IC50 MCF 10A) [µM]"
"COc1ccc(CCNCc2c(O)c(C)c(C)c3c2CC[C@@](C)(CC/C=C(\C)CC/C=C(\C)CCC=C(C)C)O3)cc1OC [Compound 30, (R)-5-((3,4-dimethoxyphenethylamino)methyl)-2,7,8-trimethyl-2-((3E,7E)-4,8,12-trimethyltrideca-3,7,11-trienyl)chroman-6-ol]",did not significantly differ,grew at a significantly slower rate,–,–,–
"CC(C)=CCC/C(C)=C/CC/C(C)=C/CC[C@]1(C)CCc2cc(O)c(C)c(C)c2O1 [Compound 1, γ-tocotrienol, reference compound]",–,–,> 40,4.4,4.4

# Reference: US9115145B2, “Tocotrienol derivatives and associated methods” (FIRST TECH INTERNATIONAL LIMITED, priority 2011, dated 2015)
